Assay results reported in patent publication US20160355530A1, “HEPATITIS C INHIBITORS AND USES THEREOF” (AbbVie Inc., priority 2010, published 2016).
pEC50, pIC50: −log10 of the molar value. Where two headings read alike, the source gives them in different places.

Assays:
[1] = biological target: T1, HCV NS5B polymerase 1a-H77 (Hepatitis C virus genotype 1a, UniProt P27958); assay: biochemical; set-up: species or system HCV genotype 1a; conditions: enzyme, strain 1a H77; read-out: HCV Polymerase Strain 1a H77 IC50
T1 construct: six-histidine tag; made in house; host or cells: E. coli
T1 sequence (P27958 2421-2990): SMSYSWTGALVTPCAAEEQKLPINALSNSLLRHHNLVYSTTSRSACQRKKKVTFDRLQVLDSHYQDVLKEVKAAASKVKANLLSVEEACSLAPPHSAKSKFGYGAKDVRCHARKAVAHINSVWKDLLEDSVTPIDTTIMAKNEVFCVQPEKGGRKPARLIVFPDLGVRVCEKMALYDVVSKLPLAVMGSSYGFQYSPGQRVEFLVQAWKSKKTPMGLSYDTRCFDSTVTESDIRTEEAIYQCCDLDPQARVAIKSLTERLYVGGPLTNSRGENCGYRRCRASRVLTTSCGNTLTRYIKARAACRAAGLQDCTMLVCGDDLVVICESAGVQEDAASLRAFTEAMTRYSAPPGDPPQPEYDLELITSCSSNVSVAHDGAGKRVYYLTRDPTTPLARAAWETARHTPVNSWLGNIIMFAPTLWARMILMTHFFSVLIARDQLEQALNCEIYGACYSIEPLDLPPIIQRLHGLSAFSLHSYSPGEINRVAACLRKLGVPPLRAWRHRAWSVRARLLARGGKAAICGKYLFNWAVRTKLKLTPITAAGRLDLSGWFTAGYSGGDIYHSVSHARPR
Method: (§1) Purified HCV NS5B polymerase enzymes were used for polymerase inhibition assays. All recombinant HCV polymerases contained the first 570 amino acids of the 591 amino acid native protein sequence and a six-histidine tag at the N-terminus or C-terminus to facilitate purification by affinity chromatography. The DNA nucleotide sequence for the HCV polymerase 1b BK strain was codon optimized for expression in E. coli. A synthetic gene was prepared from a series of overlapping oligonucleotides that were filled in using a DNA polymerase and amplified by PCR. The patient isolate HCV polymerases were cloned by RT-PCR methods using HCV RNA extracted from the serum of infected subjects obtained from ProMedDx and BioCollections (genotypes 2a, 2b, 3a, and 4a). Laboratory strains were cloned from plasmid DNA (1a-H77 or 1a-H77-C316Y) or from existing replicon cells (1b Rice). In all cases the amplified DNA was cloned into a protein expression vector (typically a pET vector from Novagen) and then multiple clones were sequenced to identify one whose NS5B sequence agreed with the population sequence. This sequence-confirmed clone was then transfected into E. coli for protein expression and purification. E. coli cultures were grown to a maximum optical density (OD) of 2-3 and then induced with 0.4 mM isopropyl beta-D-thiogalactopyranoside (IPTG) and grown for 20 hours at 20° C.
(§2) Proteins were purified using nickel affinity chromatography, and additional column steps were added including, ion exchange, size exclusion, hydrophobic ion, and poly-U affinity chromatography, as needed, depending on the sample being purified. The template RNA used in the polymerase enzymatic assay was a 2.1 kb construct that corresponds to the 3′-end of an HCV genotype 1b negative strand RNA.
(§3) The reaction was initiated by the addition of 20 μM CTP, 20 μM ATP, 0.284 μM (0.5 μCi) of 5,6-[^3H] UTP, 5 nM template RNA and 0.1 U/μL RNase inhibitor (RNasin, Promega), and allowed to proceed for three hours at 30° C. The final reaction volume was 50 μL. The reaction was terminated by the addition of 50 uL of 4 mM spermine in 10 mM Tris-HCl, pH 7.5, 1 mM EDTA. The quenched reaction was allowed to incubate for at least 15 minutes at room temperature, and then the precipitated RNA was captured by filtration through a glass fiber filter (GF/B, Millipore) in a 96 well format. The filter plate was washed five times with 200 μL of 2 mM spermine, 10 mM Tris-HCl, pH 8.0, 1 mM EDTA, and two times with ethanol. After drying thoroughly in air, 30 μL of Microscint-20 scintillation cocktail (Perkin Elmer) was added to each well, and the retained cpm were determined by scintillation counting. IC50 values were determined by nonlinear regression.
(§4) % Inhibition=100*[[I]/([I]+[IC50])] equation 1
(§5) V=kcat[S]/2(Km+[S])*(sqrt((IC50+I−E)̂2+(4*IC50*E))−(IC50+I−E)) equation 2

[2] = biological target: T2, HCV NS5B polymerase 1a-H77-C316Y (Hepatitis C virus genotype 1a, UniProt P27958, C2736Y); assay: biochemical; set-up: species or system HCV genotype 1a
T2 construct: six-histidine tag; made in house; host or cells: E. coli
T2 sequence (P27958 2421-2990 C2736Y): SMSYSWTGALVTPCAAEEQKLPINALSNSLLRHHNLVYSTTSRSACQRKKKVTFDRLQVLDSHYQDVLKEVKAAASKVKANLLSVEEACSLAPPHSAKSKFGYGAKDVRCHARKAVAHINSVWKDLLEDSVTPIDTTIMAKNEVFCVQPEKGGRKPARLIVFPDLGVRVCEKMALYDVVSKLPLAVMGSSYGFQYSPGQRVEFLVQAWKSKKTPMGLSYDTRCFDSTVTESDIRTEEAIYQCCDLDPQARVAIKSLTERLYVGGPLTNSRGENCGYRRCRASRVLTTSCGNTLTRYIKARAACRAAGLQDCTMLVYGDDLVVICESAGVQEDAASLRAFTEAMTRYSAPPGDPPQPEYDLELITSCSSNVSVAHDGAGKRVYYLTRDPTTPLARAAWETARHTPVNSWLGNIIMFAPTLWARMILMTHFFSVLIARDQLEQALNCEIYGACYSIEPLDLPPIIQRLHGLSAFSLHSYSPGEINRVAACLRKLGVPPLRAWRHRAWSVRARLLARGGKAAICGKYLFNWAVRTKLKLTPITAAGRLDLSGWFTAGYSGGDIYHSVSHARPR
Method: as §1, §2, §3, §4, §5

[3] = tested on: HCV NS5B polymerase 1a-H77-C316Y; assay: biochemical; set-up: species or system HCV genotype 1a; conditions: ratio of enzyme IC50s, 1a H77-C316Y / 1a H77
Method: as §1, §2, §3, §4, §5

[4] = biological target: T3, HCV NS5B polymerase 1b BK strain (Hepatitis C virus genotype 1b, UniProt P26663); assay: HCV NS5B polymerase enzymatic inhibition assay, strain 1b BK; assay type: biochemical; conditions: enzyme, strain 1b BK; read-out: HCV Polymerase Strain 1b BK IC50
T3 construct: six-histidine tag; made in house; host or cells: E. coli
T3 sequence (P26663 2420-2989): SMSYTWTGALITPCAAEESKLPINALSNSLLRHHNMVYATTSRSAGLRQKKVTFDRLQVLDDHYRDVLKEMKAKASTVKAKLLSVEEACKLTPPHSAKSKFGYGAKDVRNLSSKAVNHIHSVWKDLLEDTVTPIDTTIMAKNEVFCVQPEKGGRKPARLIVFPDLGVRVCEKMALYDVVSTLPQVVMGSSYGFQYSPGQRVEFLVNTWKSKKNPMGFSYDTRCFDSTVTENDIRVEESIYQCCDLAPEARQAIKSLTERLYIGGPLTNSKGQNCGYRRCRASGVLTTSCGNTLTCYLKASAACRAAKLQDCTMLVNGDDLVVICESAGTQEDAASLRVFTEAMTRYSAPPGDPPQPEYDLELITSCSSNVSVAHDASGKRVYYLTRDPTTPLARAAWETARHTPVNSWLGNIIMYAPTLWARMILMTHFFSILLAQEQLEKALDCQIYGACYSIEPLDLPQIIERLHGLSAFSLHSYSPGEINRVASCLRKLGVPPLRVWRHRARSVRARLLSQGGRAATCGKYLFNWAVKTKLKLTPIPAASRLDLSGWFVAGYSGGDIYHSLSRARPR
Method: as §1, §2, §3, §4, §5

[5] = tested on: HCV 1a-H77 subgenomic replicon; assay: microbe, parasite or virus in culture; assay type: cell-based, HCV genotype 1a; conditions: Hepatitis C virus, stable replicon
[6] = tested on: HCV 1b-BB7 subgenomic replicon; assay: microbe, parasite or virus in culture; assay type: cell-based, HCV genotype 1b; conditions: Hepatitis C virus, stable replicon
[7] = 5% FBS, absence of human plasma, read-out: Stable Replicon 1a H77 5% FBS EC50
[8] = strain 1a H77, 5% FBS + 40% human plasma, read-out: 1a H77 5% FBS + 40% Human Plasma EC50
[9] = strain 1a H77, 5% FBS, no human plasma, read-out: 1a H77 5% FBS EC50
[10] = strain 1a H77, 5% FBS, read-out: 1a H77 5% FBS EC50
[11] = strain 1b BB7, 5% FBS + 40% human plasma, read-out: 1b BB7 5% FBS + 40% Human Plasma EC50
[12] = strain 1b BB7, 5% FBS, no human plasma, read-out: 1b BB7 5% FBS EC50
[13] = strain 1b BB7, 5% FBS, read-out: 1b BB7 5% FBS EC50

Row | SMILES | pIC50 [1] | pIC50 [2] | C316Y/1a Fold Resistance [3] | pIC50 [4] | pEC50 [5, 7] | pEC50 [5, 8] | pEC50 [5, 9] | pEC50 [5, 10] | pEC50 [6, 11] | pEC50 [6, 12] | pEC50 [6, 13]
1 | COc1ccc(CN(c2cc3oc(-c4ccc(F)cc4)c(C4=NC(C)CN4)c3cc2C2CC2)S(C)(=O)=O)cc1 (centres unmarked) [Example 2a, N-[5-cyclopropyl-2-(4-fluorophenyl)-3-(4-methyl-4,5-dihydro-1H-imidazol-2-yl)-1-benzofuran-6-yl]-N-(4-methoxybenzyl)methanesulfonamide] | 7.82 | 6.65 | 15 fold | 7.26 |  |  |  |  |  |  | 
2 | CC(C)(C)[Si](C)(C)OCCCCN(c1cc2oc(-c3ccc(F)cc3)c(-c3ncc[nH]3)c2cc1C1CC1)S(C)(=O)=O [Example 42, N-(4-{[tert-butyl(dimethyl)silyl]oxy}butyl)-N-[5-cyclopropyl-2-(4-fluorophenyl)-3-(1H-imidazol-2-yl)-1-benzofuran-6-yl]methanesulfonamide] | 7.08 |  |  | 6.11 | 6.67 | 5.13 | 6.67 | 6.67 | 5.47 | 6.92 | 6.92
3 | CS(=O)(=O)N(CN1C(=O)c2ccccc2C1=O)c1cc2oc(-c3ccc(F)cc3)c(-c3ncc[nH]3)c2cc1C1CC1 [Example 82, N-[5-cyclopropyl-2-(4-fluorophenyl)-3-(1H-imidazol-2-yl)-1-benzofuran-6-yl]-N-[(1,3-dioxo-1,3-dihydro-2H-isoindol-2-yl)methyl]methanesulfonamide] | 6.46 |  |  | 5.52 | 5.58 |  | 5.58 | 5.58 |  | 5.80 | 5.80
4 | CC(C)CCN(c1cc2oc(-c3ccc(F)cc3)c(C3=NOC(C)(C)N3)c2cc1C1CC1)S(C)(=O)=O [Example 152, N-[5-cyclopropyl-3-(5,5-dimethyl-4,5-dihydro-1,2,4-oxadiazol-3-yl)-2-(4-fluorophenyl)-1-benzofuran-6-yl]-N-(3-methylbutyl)methanesulfonamide] | 6.93 |  |  | 5.44 | 5.00 |  | 5.00 | 5.00 |  | 5.00 | 5.00
5 | CCCc1nc(-c2c(-c3ccc(F)cc3)oc3cc(N(CCC(C)C)S(C)(=O)=O)c(C4CC4)cc23)no1 [Example 153, N-[5-cyclopropyl-2-(4-fluorophenyl)-3-(5-propyl-1,2,4-oxadiazol-3-yl)-1-benzofuran-6-yl]-N-(3-methylbutyl)methanesulfonamide] | 3.75 |  |  | 3.70 |  |  |  |  |  |  | 
6 | CCCC1NC(c2c(-c3ccc(F)cc3)oc3cc(N(CCC(C)C)S(C)(=O)=O)c(C4CC4)cc23)=NO1 (centres unmarked) [Example 154, N-[5-cyclopropyl-2-(4-fluorophenyl)-3-(5-propyl-4,5-dihydro-1,2,4-oxadiazol-3-yl)-1-benzofuran-6-yl]-N-(3-methylbutyl)methanesulfonamide] | 4.67 |  |  | 4.20 |  |  |  |  |  |  | 
7 | CCC1NC(c2c(-c3ccc(F)cc3)oc3cc(N(CCC(C)C)S(C)(=O)=O)c(C4CC4)cc23)=NO1 (centres unmarked) [Example 155, N-[5-cyclopropyl-3-(5-ethyl-4,5-dihydro-1,2,4-oxadiazol-3-yl)-2-(4-fluorophenyl)-1-benzofuran-6-yl]-N-(3-methylbutyl)methanesulfonamide] | 7.28 | 6.26 | 10 fold |  | 5.51 | 5.00 | 5.51 | 5.51 | 5.00 | 5.20 | 5.20
8 | COc1ccc(CN(c2cc3oc(-c4ccc(F)cc4)c(C4=NOCC(=O)N4)c3cc2C2CC2)S(C)(=O)=O)cc1 [Example 160, N-[5-cyclopropyl-2-(4-fluorophenyl)-3-(5-oxo-5,6-dihydro-4H-1,2,4-oxadiazin-3-yl)-1-benzofuran-6-yl]-N-(4-methoxybenzyl)methanesulfonamide] | 6.96 |  |  | 6.03 | 5.67 | 5.00 | 5.67 | 5.67 | 5.03 | 6.22 | 6.22
9 | CS(=O)(=O)Nc1cc2oc(-c3ccc(F)cc3)c(-c3nc(Cl)c(Cl)[nH]3)c2cc1C1CC1 [Example 163, N-[5-cyclopropyl-3-(4,5-dichloro-1H-imidazol-2-yl)-2-(4-fluorophenyl)-1-benzofuran-6-yl]methanesulfonamide] | 6.67 |  |  | 6.26 | 5.11 | 5.00 | 5.11 | 5.11 | 5.00 | 5.27 | 5.27
10 | CS(=O)(=O)Nc1cc2oc(-c3ccc(F)cc3)c(-c3nc(Cl)c[nH]3)c2cc1C1CC1 [Example 164, N-[3-(4-chloro-1H-imidazol-2-yl)-5-cyclopropyl-2-(4-fluorophenyl)-1-benzofuran-6-yl]methanesulfonamide] | 6.87 |  |  | 6.04 | 6.00 | 5.00 | 6.00 | 6.00 | 5.00 | 6.00 | 6.00
11 | CS(=O)(=O)Nc1cc2oc(-c3ccc(F)cc3)c(-c3nc(Br)c(Br)[nH]3)c2cc1C1CC1 [Example 165, N-[5-cyclopropyl-3-(4,5-dibromo-1H-imidazol-2-yl)-2-(4-fluorophenyl)-1-benzofuran-6-yl]methanesulfonamide] | 5.82 |  |  | 5.57 |  |  |  |  |  |  | 
12 | Cc1ccc(C)n1-c1ccc2c(-c3ncc[nH]3)c(-c3ccccc3)oc2c1 [Example 166, 2-[6-(2,5-dimethyl-1H-pyrrol-1-yl)-2-phenyl-1-benzofuran-3-yl]-1H-imidazole] | 5.80 |  |  | 5.15 |  |  |  |  |  |  | 
13 | CC(C)CCN(c1cc2oc(-c3ccc(F)cc3)c(-c3nc(C(F)(F)F)c[nH]3)c2cc1C1CC1)S(C)(=O)=O [Example 171, N-{5-cyclopropyl-2-(4-fluorophenyl)-3-[4-(trifluoromethyl)-1H-imidazol-2-yl]-1-benzofuran-6-yl}-N-(3-methylbutyl)methanesulfonamide] | 5.54 |  |  | 4.05 | 5.12 |  | 5.12 | 5.12 |  | 5.03 | 5.03
14 | COc1ccc(CN(c2cc3oc(-c4ccc(F)cc4)c(-c4nc(C)c(C)[nH]4)c3cc2C2CC2)S(C)(=O)=O)cc1 [Example 186, N-[5-cyclopropyl-3-(4,5-dimethyl-1H-imidazol-2-yl)-2-(4-fluorophenyl)-1-benzofuran-6-yl]-N-(4-methoxybenzyl)methanesulfonamide] | 5.35 |  |  | 5.35 |  |  |  |  |  |  | 
15 | Cc1nc(-c2c(-c3ccc(F)cc3)oc3cc(NS(C)(=O)=O)c(C4CC4)cc23)[nH]c1C [Example 192, N-[5-cyclopropyl-3-(4,5-dimethyl-1H-imidazol-2-yl)-2-(4-fluorophenyl)-1-benzofuran-6-yl]methanesulfonamide] | 4.99 |  |  | 4.74 |  |  |  |  |  |  | 
